PubChem BioAssay (NCI)
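Assay format: 96-well plates, 48-hour exposure. TGI marks complete inhibition of growth.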

Tests used:
Test in all cases: inhibition of tumour cell growth, NCI panel, 48 h
786-0 renal = tested on: 786-0 renal
A498 renal = tested on: A498 renal
ACHN renal = tested on: ACHN renal
BT-549 breast = tested on: BT-549 breast
CAKI-1 renal = tested on: CAKI-1 renal
CCRF-CEM leukemia = tested on: CCRF-CEM leukemia
COLO 205 colon = tested on: COLO 205 colon
DU-145 prostate = tested on: DU-145 prostate
EKVX NSCLC = tested on: EKVX NSCLC
HCC-2998 colon = tested on: HCC-2998 colon
HCT-116 colon = tested on: HCT-116 colon
HCT-15 colon = tested on: HCT-15 colon
HL-60(TB) leukemia = tested on: HL-60(TB) leukemia
HOP-62 NSCLC = tested on: HOP-62 NSCLC
HS 578T breast = tested on: HS 578T breast
HT29 colon = tested on: HT29 colon
IGROV1 ovarian = tested on: IGROV1 ovarian
K-562 leukemia = tested on: K-562 leukemia
KM12 colon = tested on: KM12 colon
M14 melanoma = tested on: M14 melanoma
MALME-3M melanoma = tested on: MALME-3M melanoma
MCF7 breast = tested on: MCF7 breast
MDA-MB-231 breast = tested on: MDA-MB-231 breast
MDA-N = tested on: MDA-N
MOLT-4 leukemia = tested on: MOLT-4 leukemia
NCI-H226 lung = tested on: NCI-H226 lung
NCI-H23 lung = tested on: NCI-H23 lung
NCI-H460 lung = tested on: NCI-H460 lung
NCI-H522 lung = tested on: NCI-H522 lung
NCI/ADR-RES ovarian = tested on: NCI/ADR-RES ovarian
OVCAR-3 ovarian = tested on: OVCAR-3 ovarian
OVCAR-4 ovarian = tested on: OVCAR-4 ovarian
OVCAR-5 ovarian = tested on: OVCAR-5 ovarian
OVCAR-8 ovarian = tested on: OVCAR-8 ovarian
PC-3 prostate = tested on: PC-3 prostate
RXF 393 renal = tested on: RXF 393 renal
SF-268 CNS = tested on: SF-268 CNS
SF-295 CNS = tested on: SF-295 CNS
SF-539 CNS = tested on: SF-539 CNS
SK-MEL-2 melanoma = tested on: SK-MEL-2 melanoma
SK-MEL-28 melanoma = tested on: SK-MEL-28 melanoma
SK-MEL-5 melanoma = tested on: SK-MEL-5 melanoma
SK-OV-3 ovarian = tested on: SK-OV-3 ovarian
SN12C renal = tested on: SN12C renal
SNB-19 CNS = tested on: SNB-19 CNS
SNB-75 CNS = tested on: SNB-75 CNS
SR leukemia = tested on: SR leukemia
SW-620 colon = tested on: SW-620 colon
T-47D breast = tested on: T-47D breast
TK-10 renal = tested on: TK-10 renal
UACC-257 melanoma = tested on: UACC-257 melanoma
UACC-62 melanoma = tested on: UACC-62 melanoma
UO-31 renal = tested on: UO-31 renal

Measured: TGI

Cc1ccc(C(=O)Nc2ccc(S(=O)(=O)O)c3cc(S(=O)(=O)O)cc(S(=O)(=O)O)c23)cc1N
> 100 µM: 786-0 renal | A498 renal | ACHN renal | BT-549 breast | CAKI-1 renal | CCRF-CEM leukemia | COLO 205 colon | DU-145 prostate | EKVX NSCLC | HCC-2998 colon | HCT-116 colon | HCT-15 colon | HL-60(TB) leukemia | HOP-62 NSCLC | HS 578T breast | HT29 colon | IGROV1 ovarian | K-562 leukemia | KM12 colon | M14 melanoma | MALME-3M melanoma | MCF7 breast | MDA-MB-231 breast | MDA-N | MOLT-4 leukemia | NCI-H226 lung | NCI-H23 lung | NCI-H460 lung | NCI-H522 lung | NCI/ADR-RES ovarian | OVCAR-3 ovarian | OVCAR-4 ovarian | OVCAR-5 ovarian | OVCAR-8 ovarian | PC-3 prostate | RXF 393 renal | SF-268 CNS | SF-295 CNS | SF-539 CNS | SK-MEL-2 melanoma | SK-MEL-28 melanoma | SK-MEL-5 melanoma | SK-OV-3 ovarian | SN12C renal | SNB-19 CNS | SNB-75 CNS | SR leukemia | SW-620 colon | T-47D breast | TK-10 renal | UACC-257 melanoma | UACC-62 melanoma | UO-31 renal
